# Test results from US20260109690A1, “HDAC6 INHIBITORS AND METHOD OF THEIR USE” (Baerenkraft Therapeutics, LLC., priority 2024, published 2026).
# Columns and labels:
# [1] = molecular target: HDAC2 (Homo sapiens, UniProt Q92769); experiment: HDAC selectivity panel: HDAC2; type: biochemical
# [2] = ALS mouse model: bioanalysis of plasma, brain and CSF; type: in vivo, mice; details: 4-hour timepoint, after week 16
# Description: At 16 weeks (9+7-week behavioral assessment), animals were dosed either with the vehicle or test compound and 4 hours post dosing, CSF, blood, and brain were collected for bioanalysis. Muscles (tibialis, soleus and gastrocnemius) and spinal cord were collected for histology (optional).
# After completion of week 16 (9+7-week behavioral assessment), animals were dosed with the vehicle or test compound. 4 hours post dosing, CSF and blood (retro-orbitally) were collected under mild isoflurane anesthesia. Blood was centrifuged at 5000 rpm for 10 minutes at 4° C. and separated plasma was utilized for plasma drug concentration analysis. Then animals were euthanized, and brain tissue was collected. CSF, plasma and brain tissue samples from G3 and G4 were prepared for bioanalysis and compounds were extracted, and the supernatant was injected for LC-MS/MS bioanalysis. Drug concentration of compound I-8 was calculated from respective calibration curve for G3 and G4.
# [3] = ALS mouse model: clinical signs & mortality; type: in vivo; details: G4 30 mg/kg (50 mg/kg from day 34) p.o. QD; SOD1-G93A mice
# Description: Male mice and age-matched control mice were procured. All animals were quarantine for 7 days and acclimatized for one day prior to experiment initiation. During this period, the animals were observed daily for clinical signs.
# Mice were weighed and randomized into different groups and age matched control groups were kept as such. Test compound I-8 was freshly formulated and administered to the respective animals of each group as per body weight. Animals in G1 and G2 were administered with vehicle. G3 and G4 group animals were dosed with compound I-8 at the dose of 15 mg/kg and 30 mg/kg respectively, per orally; Q.D. G4 animals were administered 30 mg/kg dose until day 34 and 50 mg/kg from day 35 onwards.
# Cage-side observations were made to detect any changes and general activity of the animals. After dose administration, all the animals were observed carefully for treatment related clinical signs, including morbidity and mortality.
# [4] = tested on: B6SJL.SOD1-G93A transgenic mouse model of amyotrophic lateral sclerosis; experiment: ALS mouse model: beam walk test; type: in vivo, mice
# From the text: Beam walk test was used for the assessment of motor coordination or balance of animals. The beam apparatus consisted of 1-meter beams with a flat surface of 6 mm width resting 50 cm above the tabletop on two poles. Animals were placed at one end of the beam, allowed to traverse the beam and reach another end with a cage filled with the home cage bedding. Animals were trained on beams for 2 consecutive days, 3 trials per day with 30 s inter-trial interval. On day 3 (day of test), animals were tested on the beam. A total 3 trials were performed, and time taken to traverse the beam & number of slips were recorded, average data was analyzed. For animals unable to traverse the beam, a cutoff time of 60 s was assigned.
# Note: Number of slips were recorded until week 12 due to disease progression after that.
# Note: Behavioral tests were performed once in two weeks, i.e. at week 10, 12, 14 and 16.
# [5] = tested on: Tg2576 AD Disease Mice; experiment: Tg2576 study: Morris water maze test; type: in vivo; details: G3 Tg2576 mice, 50 mg/kg then 80 mg/kg from day 36 p.o.; 9th month, probe test
# Description: (§1) Mice were weighed and randomized into groups. All the test formulations were freshly administered to respective animals of each group as per body weight. Basal behavior of the animals was recorded and analyzed in open field, Y-Maze, and EPM. Post basal behavior, animals were treated with compound I-16 for the duration of 3 months (i.e., from 6 months until 9 months). During the treatment duration, animals were subjected to different behavioral tests such as OFT, Y-maze, and EPM at 7, 8 and 9 months. At the end of experiments (i.e., at 9 months) animals were subjected to Morris water maze test.
# Animals were subjected to MWM to test spatial working memory. Animals were subjected to habituation, acquisition, and probe trial phase. On day 0, animals were habituated to the Morris water maze tank filled with water for a duration of 90 seconds. During the acquisition phase from day 1 to 4, animals were allowed to swim or search the hidden platform for a duration of 60 seconds. Animals were subjected to a total of 4 trials from 4 different positions each day. On the day of the probe test, animals were allowed to swim for a duration of 60 seconds without platform and time spent in the target quadrant was recorded. During the acquisition phase, latency to reach the platform was calculated.
# [6] = tested on: Tg2576 AD Disease Mice; experiment: Tg2576 study: elevated plus maze; type: in vivo; details: for Elevated Plus Maze time spent in Closed arms / Elevated Plus Maze time spent in Open arms: G3 Tg2576 mice
# Description: as §1
# Animals were subjected to elevated plus maze to evaluate anxiety-like behavior. Animals were placed in the centre of the arena with two open and two closed arms facing towards closed arms and allowed to explore the arena for a duration of 5 minutes. Animal behavior was video recorded using overhead video recording camera. Total time spent in the closed and open arms were quantified using automated animal tracking software Ethovision XT.
# [7] = Mice PK studies of compound I-16; type: in vivo
# [8] = G4 50 mg/kg p.o. (30 mg/kg until day 33)
# [9] = 50 mg/kg then 80 mg/kg from day 36 p.o., 8th months
# [10] = 50 mg/kg then 80 mg/kg from day 36 p.o., 9th months
# [11] = 6th months (Basal, before treatment)
# Sequence of HDAC2 (Q92769 whole entry, species assumed): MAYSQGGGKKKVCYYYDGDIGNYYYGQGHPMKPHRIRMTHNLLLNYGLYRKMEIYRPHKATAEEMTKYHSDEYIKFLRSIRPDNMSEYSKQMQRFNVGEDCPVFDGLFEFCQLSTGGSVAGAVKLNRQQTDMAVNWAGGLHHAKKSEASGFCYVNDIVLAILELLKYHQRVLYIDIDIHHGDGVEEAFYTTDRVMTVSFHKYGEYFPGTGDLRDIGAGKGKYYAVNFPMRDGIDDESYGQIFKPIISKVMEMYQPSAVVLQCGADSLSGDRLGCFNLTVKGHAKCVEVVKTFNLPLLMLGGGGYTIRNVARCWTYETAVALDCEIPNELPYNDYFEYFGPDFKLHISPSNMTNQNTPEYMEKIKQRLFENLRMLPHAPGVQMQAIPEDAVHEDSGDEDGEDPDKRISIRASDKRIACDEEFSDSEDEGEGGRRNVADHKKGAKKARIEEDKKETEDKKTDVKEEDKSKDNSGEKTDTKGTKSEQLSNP
structure (smiles),measurement,setting,value
"CC1CN(Cc2ccc(Nc3nccc(-c4ccc(C(=O)NO)cc4)n3)cc2F)CCO1 (racemic) [Compound I-8, 4-(2-((3-fluoro-4-((2-methylmorpholino)methyl)phenyl)amino)pyrimidin-4-yl)-N-hydroxybenzamide]",IC50,[1],2.8 µM
same,Brain drug concentration (Mean),[2]; G3 15 mg/kg p.o.,2.34
same,Plasma drug concentration (Mean),[2]; G3 15 mg/kg p.o.,12.35
same,Brain drug concentration (Mean),[2]; [8],3.87
same,CSF drug concentration (Mean),[2]; [8],2.70
same,Plasma drug concentration (Mean),[2]; [8],136.15
same,mortality,[3],two mortalities
same,Beam Walk Test- Latency to traverse the beam,"[4]; G3 15 mg/kg p.o. QD, Week 10",21.37 ± 5.99 s
same,Beam Walk Test: Number of Slips,"[4]; G3 15 mg/kg p.o. QD, Week 10",1.42 ± 0.14
same,Beam Walk Test- Latency to traverse the beam,"[4]; G3 15 mg/kg p.o. QD, Week 12",25.96 ± 5.59 s
same,Beam Walk Test: Number of Slips,"[4]; G3 15 mg/kg p.o. QD, Week 12",0.93 ± 0.19
same,Beam Walk Test- Latency to traverse the beam,"[4]; G3 15 mg/kg p.o. QD, Week 14",20.52 ± 6.85 s
same,Beam Walk Test- Latency to traverse the beam,"[4]; G3 15 mg/kg p.o. QD, Week 16",58.21 ± 1.79 s
same,Beam Walk Test- Latency to traverse the beam,"[4]; G4 30 mg/kg (50 mg/kg from day 34) p.o. QD, Week 10",17.04 ± 5.71 s
same,Beam Walk Test- Latency to traverse the beam,"[4]; G4 30 mg/kg (50 mg/kg from day 34) p.o. QD, Week 12",29.83 ± 6.82 s
same,Beam Walk Test- Latency to traverse the beam,"[4]; G4 30 mg/kg (50 mg/kg from day 34) p.o. QD, Week 14",25.29 ± 7.64 s
same,Beam Walk Test- Latency to traverse the beam,"[4]; G4 30 mg/kg (50 mg/kg from day 34) p.o. QD, Week 16, cutoff time 60 s",60 ± 0 s
same,Beam Walk Test: Number of Slips,"[4]; G4 30 mg/kg p.o. QD, Week 10",1.33 ± 0.40
same,Beam Walk Test: Number of Slips,"[4]; G4 30 mg/kg p.o. QD, Week 12",1.38 ± 0.34
same,latency to traverse the beam vs. G2,"[4]; G4, week 10",significant reduction in latency to traverse the beam
same,"motor balance compared to G2, disease control group","[4]; G4, week 10",significant improvement was observed in motor balance
"C[C@@H]1CN(Cc2ccc(Nc3nccc(-c4ccc(C(=O)NO)cc4)n3)cc2F)CCO1 [Compound I-16, (R)-4-(2-((3-fluoro-4-((2-methylmorpholino)methyl)phenyl)amino)pyrimidin-4-yl)-N-hydroxybenzamide]",Morris Water Maze time spent in NW (Target Quadrant),[5],15.49 ± 1.80 s
same,Elevated Plus Maze: time spent in open and closed arms compared to G2 (Tg2576 + vehicle),"[6]; G3 Tg2576 AD disease mice, 50 mg/kg",did not show any significant difference
same,Elevated Plus Maze time spent in Closed arms,"[6]; 50 mg/kg p.o., 7th months",165.48 ± 28.89
same,Elevated Plus Maze time spent in Open arms,"[6]; 50 mg/kg p.o., 7th months",73.82 ± 27.58
same,Elevated Plus Maze time spent in Closed arms,[6]; [9],245.27 ± 12.41
same,Elevated Plus Maze time spent in Open arms,[6]; [9],54.73 ± 12.41
same,Elevated Plus Maze time spent in Closed arms,[6]; [10],241.46 ± 11.16
same,Elevated Plus Maze time spent in Open arms,[6]; [10],58.55 ± 11.16
same,Elevated Plus Maze time spent in Closed arms,[6]; [11],110.86 ± 16.69
same,Elevated Plus Maze time spent in Open arms,[6]; [11],82.94 ± 14.23
same,oral and brain uptake,[7],"promising oral, and brain up take"
